According to PMC9323974, “Palladium(II) Complexes of Substituted Salicylaldehydes: Synthesis, Characterization and Investigation of Their Biological Profile” (Pharmaceuticals, 2022):
“And” between values parts separate entries of the source, which are not always exact repeats. Identical values can stand only once. Like-named read-outs stand apart in the source and are kept apart here.

How the values were obtained:
EB-DNA adduct (CT DNA) = assay: EB-displacement from EB-DNA (fluorescence); type: binding, calf; settings: for ΔΙ/Ι0 (%) EB-DNA fluorescence quenching: [EB] = 20 μM, [DNA] = 26 μM; for kq (EB-DNA quenching constant): τo = 23 ns; for EB-DNA relative fluorescence emission intensity, % of the initial: λemission = 592 nm, final value
Method: page 8: […] spectroscopy, viscosity measurements and fluorescence emission spectroscopy studies. […] UV-vis spectroscopy was used for the evaluation of the interaction of the compounds with CT DNA, and specifically the possible binding modes of the compounds to CT DNA. Control experiments with DMSO were performed and no changes in the spectra of CT DNA were observed. In order to determine the binding mode, the UV-vis spectra of the compounds were […] concentrations of CT DNA for diverse r (r = [complex]/[DNA]) values. Effective use of the changes […] compounds were calculated by the Wolfe-[…] equation (eq. […] εf) versus [DNA]: (eq. S1) where [DNA] = the concentration of DNA in base pairs, ε f= the extinction coefficient for the free compound at the corresponding λmax, εA = Aobsd/[compound] and εb= the extinction coefficient for the compound in the fully bound form. K b is given by the ratio of slope to the y intercept in plots [DNA]/(εA-εf) versus [DNA]. S3.2 CT DNA-binding studies by viscosity measurements […] presence of increasing amounts of the compounds. The experiments were executed at room temperature and the measurements are devised in a plot (η/η 0)1/3 versus r, where η = the viscosity of DNA in the presence of the compound, and η0 = the viscosity of neat DNA in buffer solution. […] In order to determine and confirm the DNA-binding mode of the compounds, a competitive study with EB as an intercalating marker is performed by fluorescence emission spectroscopy. Therefore, the EB-displacing ability of the compounds from its EB-DNA conjugate was examined. […] solution (150 mM NaCl and 15 mM trisodium citrate at pH 7.0). The potential intercalation of the compounds between the DNA-bases was studied by the addition of a certain amount of the 8 (1 picture or pasted object on this page, not shown here) page 9: compound solution into the EB-DNA adduct solution. The influence of the compounds on the EB- DNA solution was monitored through the changes of the fluorescence emission spectra at excitation wavelength (λex) at 540 nm [S6]. […] Bearing that in mind, the observed quenching of the EB-DNA solution is evidently associated to the displacement of EB from its EB-DNA adduct. The quenching efficiency (KSV) for each compound was assessed according to the Stern - Volmer equation (eq. S2) [S6]: (eq. S2) where I0 and I = the fluorescence emission intensities of EB-DNA in the absence and presence of the quencher, respectively, [Q] = the concentration of the quencher (i.e. compounds). K SV is obtained from the Stern-Volmer plots by the slope of the diagram I0/I versus [Q]. Taking τ0 = 23 ns […] M-1s-1) of the compounds can be determined according to e quation S3: KSV = kqτo (eq. S3) 9 (1 picture or pasted object on this page, not shown here)

[1] = tested on: Xanthomonas campestris ATCC 1395; assay: MIC determination; type: cell-based; settings: for MIC: Xanthomonas campestris, ATCC1395, 24 h, read-out: MIC X. campestris; for MIC X. campestris: 24 h
Method: (§1) S2 Antibacterial activity
(§2) The antimicrobial activity of the compounds was evaluated by determining their respective MIC values towards two Gram–(–) (Escherichia coli NCTC 29212 (E. coli) and Xanthomonas campestris ATCC 1395 (X. campestris)) and two Gram–(+) (Staphylococcus aureus ATCC 6538 (S. aureus) and Bacillus subtilis ATCC 6633 (B. subtilis)) bacterial species. Cultures of these microbial strains were grown on a rich selective agar medium and stored at 4°C. The selective media used were Nutrient Agar or Broth for B. subtilis and S. aureus, Yeast Mold Agar or Broth for X. campestris and Luria Agar or Broth for E. coli. Cells picked from the surface of the stored cultures were used to initiate liquid pre–cultures of the same selective medium at an initial turbidity of roughly 1 McFarland unit. Pre–cultures were incubated for 24 h in a rotary shaking incubator and subsequently they were used to inoculate the test cultures used for the determination of MIC at an initial turbidity of 0.5 McFarland units. The test cultures consisted of Mueller –Hinton broth (Deben Diagnostics Ltd) containing different concentrations of the compounds.
(§3) Different concentrations were achieved as follows: the compounds were freshly dissolved in DMSO to a concentration of 1 mg mL–1 and they were diluted with DMSO, using the method of progressive double dilution. Therefore, working solutions with decreasing concentrations of the compounds under investigation were achieved. The working solutions were subsequently diluted to the final desired concentration by addition to the growth medium at a proportion of 2:98. MIC values were determined as the lowest concentrations of the tested compounds that inhibited visible growth of each respective organism after a 24 h incubation [ S3]. Bacterial growth was determined by measuring the turbidity of appropriately diluted cultures at 600 nm with reference to equally diluted sterile growth medium and the inhibition achieved was calculated by comparing the turbidity of each culture to the average of the turbidity of three non–inhibited cultures. All test cultures were grown in triplicates and for the determination of MIC, growth had to be inhibited in at least two cultures of the triplicate. Incubation temperature at all stages was 37°C except for X. campestris that was cultivated at 28°C [S4].

[2] = tested on: Escherichia coli NCTC 29212; assay: MIC determination; type: cell-based; settings: for MIC: read-out: MIC E. coli
Method: as §1, §2, §3

[3] = tested on: Staphylococcus aureus ATCC 6538; assay: MIC determination; type: cell-based; settings: for MIC: read-out: MIC S. aureus
Method: as §1, §2, §3

[4] = tested on: Bacillus subtilis ATCC 6633; assay: MIC determination; type: cell-based; settings: for MIC: read-out: MIC B. subtilis
Method: as §1, §2, §3

DPPH radical scavenging = settings: compound 0.1 mM
Method: S1 Antioxidant biological assay
The antioxidant activity of the compounds was evaluated via their ability to scavenge in
vitro free radicals such as DPPH and ABTS and to reduce H2O2. All the experiments were carried
S1.1 Determination of the reducing activity of the stable radical DPPH
To an ethanolic solution of DPPH (0.1 mM) an equal volume solution of the compounds
(0.1 mM) in ethanol was added. Absolute ethanol was also used as control solution. The absorbance
at 517 nm was recorded at room temperature after 30 and 60 min, in order to examine the possible
existence of a potential time–dependence of the DPPH radical scavenging activity [S1]. The DPPH–
scavenging activity of the compounds was expressed as the percentage reduction of the absorbance
values of the initial DPPH solution (DPPH%). NDGA and BHT were used as reference compounds. […]

[5] = Escherichia coli, NCTC29212, 24 h
[6] = Staphylococcus aureus, ATCC6538, 24 h
[7] = Bacillus subtilis, ATCC6633, 24 h

Compound | KSV (Stern–Volmer constant), EB-DNA (EB-DNA adduct (CT DNA)) | ΔΙ/Ι0 (%) EB-DNA fluorescence quenching (EB-DNA adduct (CT DNA)) [%] | kq (EB-DNA quenching constant) (EB-DNA adduct (CT DNA)) | MIC [1] | MIC [2, 5] | MIC [3, 6] | MIC [4, 7] | DPPH% (30 min) (DPPH radical scavenging) [%] | DPPH% (60 min) (DPPH radical scavenging) [%] | EB-DNA relative fluorescence emission intensity, % of the initial (EB-DNA adduct (CT DNA)) [%] | MIC X. campestris [1] [µg/mL] | MIC X. campestris ([1]; value in parentheses) [µM] | MIC E. coli ([2]; 24 h) [µg/mL] | MIC ([2]; 24 h, value in parentheses) [µM] | MIC S. aureus ([3]; 24 h) [µg/mL] | MIC ([3]; 24 h, value in parentheses) [µM] | MIC B. subtilis ([4]; 24 h) [µg/mL] | MIC ([4]; 24 h, value in parentheses) [µM]
CCN(CC)c1ccc(C=O)c(O)c1 [4-Et2N-saloH, 4-diethylamino-salicylaldehyde, reference compound] | 2.89 (±0.07) × 10^4 M^−1 | 43.4 | 1.25 (±0.03) × 10^12 M^−1s^−1 | > 200 µg/mL and > 1040 µM | > 200 µg/mL and > 1040 µM | > 200 µg/mL and > 1040 µM | > 200 µg/mL and > 1040 µM | 2.47 ± 0.09 | 3.20 ± 0.08 | – | – | – | – | – | – | – | – | –
COc1ccc(C=O)c(O)c1 [4-OMe-saloH, 4-methoxy-salicylaldehyde, reference compound] | – | – | – | > 200 µg/mL and > 1310 µM | > 200 µg/mL and > 1310 µM | > 200 µg/mL and > 1310 µM | > 200 µg/mL and > 1310 µM | 4.16 ± 0.10 | 6.27 ± 0.25 | – | – | – | – | – | – | – | – | –
O=Cc1cc(F)ccc1O [5-F-saloH, 5-fluoro-salicylaldehyde, reference compound] | 3.79 (±0.11) × 10^4 M^−1 | 51.3 | 1.73 (±0.05) × 10^12 M^−1s^−1 | 200 µg/mL and 1430 µM | 200 µg/mL and 1430 µM | 200 µg/mL and 1430 µM | 200 µg/mL and 1430 µM | 3.96 ± 1.16 | 5.56 ± 1.06 | – | – | – | – | – | – | – | – | –
CCN(CC)c1ccc(C=O)c([O][Pd][O]c2cc(N(CC)CC)ccc2C=O)c1 [Complex 1, [Pd(4-Et2N-salo)2]] | 1.03 (±0.02) × 10^5 M^−1 | 51.2 | 4.49 (±0.09) × 10^12 M^−1s^−1 | – | – | – | – | 2.45 ± 0.09 | 4.00 ± 0.53 | 48.8 | 200 | 407 | 100 | 204 | 100 | 204 | 100 | 204
O=Cc1cc(Br)cc(Br)c1[O][Pd][O]c1c(Br)cc(Br)cc1C=O [Complex 2, [Pd(3,5-diBr-salo)2]] | 1.00 (±0.02) × 10^5 M^−1 | 64.8 | 4.35 (±0.10) × 10^12 M^−1s^−1 | – | – | – | – | 7.99 ± 0.24 | 14.63 ± 0.53 | 35.2 | 25 | 38 | 25 | 38 | 25 | 38 | 25 | 38
O=Cc1cc(Cl)cc(Cl)c1[O-].O=Cc1cc(Cl)cc(Cl)c1[O-].[Pd+2] [Complex 3, [Pd(3,5-diCl-salo)2]] | 7.53 (±0.18) × 10^4 M^−1 | 60.6 | 3.27 (±0.08) × 10^12 M^−1s^−1 | – | – | – | – | 4.60 ± 0.20 | 2.91 ± 0.11 | 39.4 | 25 | 51 | 25 | 51 | 25 | 51 | 50 | 103
O=Cc1cc(F)ccc1[O-].O=Cc1cc(F)ccc1[O-].[Pd+2] [Complex 4, [Pd(5-F-salo)2]] | 5.71 (±0.10) × 10^4 M^−1 | 51.4 | 2.48 (±0.04) × 10^12 M^−1s^−1 | – | – | – | – | 14.82 ± 0.45 | 13.61 ± 0.48 | 48.6 | 100 | 259 | 100 | 259 | 100 | 259 | 100 | 259
